Data published in PubChem BioAssay AID330 (DTP/NCI, 2004).
Values joined by “and” are separate entries in the source; they are usually repeats but may differ in a detail not shown here. Identical values can stand only once. Inconclusive results and toxic doses are left out. The calls were made as follows: active = survival T/C of 150% or more; inactive = T/C below 125% in these data.

Tested on: P388 leukemia ip, CD2F1 mice, survival T/C
Assay: NCI In Vivo Anticancer Drug Screen. Data for tumor model P388 Leukemia (intraperitoneal) in CD2F1 (CDF1) mice
Conditions: endpoint: median survival time, higher = longer survival
How it was run: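 Mice carrying the transplanted tumor received test compound or vehicle. Survival was recorded in each group, and the value is the treated-group measurement divided by that of the vehicle-treated control group.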

[1] = dose: 12.5 mg/kg/injection, schedule: Q01DX009 (ip), vehicle: saline with Tween-80
[2] = dose: 25.0 mg/kg/injection, schedule: Q01DX009 (ip), vehicle: saline with Tween-80
[3] = dose: 50.0 mg/kg/injection, schedule: Q01DX005 (ip), vehicle: Klucel (hydroxypropylcellulose) (HPC)
[4] = dose: 100.0 mg/kg/injection, schedule: Q01DX005 (ip), vehicle: Klucel (hydroxypropylcellulose) (HPC)
[5] = dose: 200.0 mg/kg/injection, schedule: Q01DX005 (ip), vehicle: Klucel (hydroxypropylcellulose) (HPC)
[6] = dose: 60.0 mg/kg/injection, schedule: Q01DX005 (ip), vehicle: Klucel (hydroxypropylcellulose) (HPC)
[7] = dose: 120.0 mg/kg/injection, schedule: Q01DX005 (ip), vehicle: Klucel (hydroxypropylcellulose) (HPC)
[8] = dose: 240.0 mg/kg/injection, schedule: Q01DX005 (ip), vehicle: Klucel (hydroxypropylcellulose) (HPC)
[9] = dose: 25.0 mg/kg/injection, schedule: Q01DX009 (ip), vehicle: saline
[10] = dose: 50.0 mg/kg/injection, schedule: Q01DX009 (ip), vehicle: saline
[11] = dose: 100.0 mg/kg/injection, schedule: Q01DX009 (ip), vehicle: saline
[12] = dose: 50.0 mg/kg/injection, schedule: Q01DX009 (ip), vehicle: saline with Tween-80
[13] = dose: 100.0 mg/kg/injection, schedule: Q01DX009 (ip), vehicle: saline with Tween-80
[14] = dose: 200.0 mg/kg/injection, schedule: Q01DX009 (ip), vehicle: saline with Tween-80
[15] = dose: 50.0 mg/kg/injection, schedule: Q01DX009 (ip), vehicle: Klucel (hydroxypropylcellulose) (HPC)
[16] = dose: 100.0 mg/kg/injection, schedule: Q01DX009 (ip), vehicle: Klucel (hydroxypropylcellulose) (HPC)
[17] = dose: 200.0 mg/kg/injection, schedule: Q01DX009 (ip), vehicle: Klucel (hydroxypropylcellulose) (HPC)
[18] = dose: 12.5 mg/kg/injection, schedule: Q01DX009 (ip), vehicle: distilled water + Tween-80
[19] = dose: 200.0 mg/kg/injection, schedule: Q01DX009 (ip), vehicle: saline
[20] = dose: 60.0 mg/kg/injection, schedule: Q01DX005 (ip), vehicle: saline with Tween-80
[21] = dose: 120.0 mg/kg/injection, schedule: Q01DX005 (ip), vehicle: saline with Tween-80
[22] = dose: 240.0 mg/kg/injection, schedule: Q01DX005 (ip), vehicle: saline with Tween-80

Measured: T/C

NCCSC(C[N+](=O)[O-])c1ccc2c(c1)OCO2 (stereo unspecified)
inactive: [1] 119 % of control | [2] 124 % of control

Cn1c(=O)[nH]n(C2Cn3c(=O)n(C)c(=O)n3-c3ccccc32)c1=O (stereo unspecified)
inactive: [3] 115 % of control | [4] 99 % of control | [5] 96 % of control

CC1([N+](=O)[O-])C(=O)C2(N3CCOCC3)CCCC2C1c1ccccc1 (stereo unspecified)
inactive: [6] 99 % of control | [7] 96 % of control | [8] 90 % of control

COc1cc(C2=N/C(=C\c3ccccc3O)C(=O)O2)cc(OC)c1OC
inactive: [9] 94 % of control | [10] 94 % of control | [11] 91 % of control

CCCCOC(=O)c1ccc(NC(=O)Nc2cc(C)ccc2C)cc1
inactive: [12] 96 % of control | [13] 94 % of control | [14] 91 % of control

CN1C(=O)NC(=O)C(=C2C=C(c3ccccc3)C(C#N)(c3ccccc3)C(c3ccccc3)=C2)C1=O (stereo unspecified)
inactive: [3] 97 % of control | [4] 97 % of control | [5] 101 % of control

COC1CC(NC(C)=O)C(OC(=O)c2ccccc2)C(CBr)O1 (stereo unspecified)
inactive: dose: 1.56 mg/kg/injection, schedule: Q01DX009 (ip), vehicle: other 94 % of control | dose: 3.13 mg/kg/injection, schedule: Q01DX009 (ip), vehicle: other 94 % of control | dose: 6.25 mg/kg/injection, schedule: Q01DX009 (ip), vehicle: other 106 % of control | dose: 12.5 mg/kg/injection, schedule: Q01DX009 (ip), vehicle: other 108 % of control | dose: 25.0 mg/kg/injection, schedule: Q01DX009 (ip), vehicle: other 100 % of control and 106 % of control | dose: 50.0 mg/kg/injection, schedule: Q01DX009 (ip), vehicle: other 101 % of control | dose: 100.0 mg/kg/injection, schedule: Q01DX009 (ip), vehicle: other 104 % of control | dose: 200.0 mg/kg/injection, schedule: Q01DX009 (ip), vehicle: other 97 % of control | dose: 400.0 mg/kg/injection, schedule: Q01DX009 (ip), vehicle: other 92 % of control

COC(=O)C12CC(CCC1C13CC=CC(C)(C)C1C(=O)OC3)C(C)C2=O (stereo unspecified)
inactive: dose: 100.0 mg/kg/injection, schedule: Q04DX002 (ip), vehicle: saline with Tween-80 92 % of control | dose: 200.0 mg/kg/injection, schedule: Q04DX002 (ip), vehicle: saline with Tween-80 95 % of control | dose: 400.0 mg/kg/injection, schedule: Q04DX002 (ip), vehicle: saline with Tween-80 103 % of control

COc1ccc2c(c1)CCc1nc3n(c1-2)C(O)(c1ccccc1)C(CC(=O)O)S3 (stereo unspecified)
inactive: [15] 94 % of control | [16] 105 % of control | [17] 103 % of control

CC(=O)c1ccc(NN=NCCF)cc1
inactive: dose: 1.56 mg/kg/injection, schedule: Q01DX009 (ip), vehicle: water 107 % of control
active: dose: 6.25 mg/kg/injection, schedule: Q01DX009 (ip), vehicle: water 154 % of control | [18] 271 % of control

COc1ccc(/C=C2\CCn3c2nc2ccccc2c3=O)cc1
inactive: dose: 89.75 mg/kg/injection, schedule: Q04DX002 (ip), vehicle: Klucel (hydroxypropylcellulose) (HPC) 103 % of control | dose: 179.5 mg/kg/injection, schedule: Q04DX002 (ip), vehicle: Klucel (hydroxypropylcellulose) (HPC) 102 % of control | dose: 359.0 mg/kg/injection, schedule: Q04DX002 (ip), vehicle: Klucel (hydroxypropylcellulose) (HPC) 102 % of control

CC(C)N=Cc1ccccc1O.CC(C)N=Cc1ccccc1O.[Zn]
inactive: dose: 25.0 mg/kg/injection, schedule: Q04DX003 (ip), vehicle: saline sonified 100 % of control | dose: 50.0 mg/kg/injection, schedule: Q04DX003 (ip), vehicle: saline sonified 100 % of control | dose: 100.0 mg/kg/injection, schedule: Q04DX003 (ip), vehicle: saline sonified 104 % of control

CCCCOn1nnc2ccccc21
inactive: [1] 94 % of control | [2] 103 % of control | [12] 100 % of control and 97 % of control | [13] 101 % of control | [14] 113 % of control

Cc1ccc(NC(=O)N(C)N=O)cc1
inactive: [12] 95 % of control | dose: 50.0 mg/kg/injection, schedule: Q04DX003 (ip), vehicle: saline with Tween-80 100 % of control | [13] 90 % of control | dose: 100.0 mg/kg/injection, schedule: Q04DX003 (ip), vehicle: saline with Tween-80 100 % of control | [14] 90 % of control | dose: 200.0 mg/kg/injection, schedule: Q04DX003 (ip), vehicle: saline with Tween-80 100 % of control

Sc1ccccc1N=Cc1cccs1
inactive: [10] 90 % of control | [11] 99 % of control | [19] 96 % of control

NC(=S)c1sc(-c2ccccc2)cc1N
inactive: [6] 108 % of control | [7] 106 % of control | [8] 104 % of control

COc1cc(C=Nc2ccc3c(c2)OCO3)cc(OC)c1OC
inactive: [20] 103 % of control | [21] 100 % of control | [22] 86 % of control

C1CSCCSCCCSCCSC1
inactive: [2] 91 % of control | [12] 106 % of control and 90 % of control | [13] 91 % of control and 92 % of control | [14] 96 % of control | dose: 400.0 mg/kg/injection, schedule: Q01DX009 (ip), vehicle: saline with Tween-80 91 % of control

CC(=O)Oc1ccc2c(c1)C(=O)CCCCC(=O)O2
inactive: dose: 100.0 mg/kg/injection, schedule: Q04DX002 (ip), vehicle: Klucel (hydroxypropylcellulose) (HPC) 106 % of control | dose: 200.0 mg/kg/injection, schedule: Q04DX002 (ip), vehicle: Klucel (hydroxypropylcellulose) (HPC) 116 % of control | dose: 400.0 mg/kg/injection, schedule: Q04DX002 (ip), vehicle: Klucel (hydroxypropylcellulose) (HPC) 106 % of control

CCOC(=O)c1ccc(N=C=S)cc1
inactive: dose: 6.25 mg/kg/injection, schedule: Q01DX009 (ip), vehicle: distilled water + Tween-80 100 % of control | [18] 100 % of control | dose: 25.0 mg/kg/injection, schedule: Q01DX009 (ip), vehicle: distilled water + Tween-80 100 % of control and 111 % of control | dose: 50.0 mg/kg/injection, schedule: Q01DX009 (ip), vehicle: distilled water + Tween-80 117 % of control | dose: 100.0 mg/kg/injection, schedule: Q01DX009 (ip), vehicle: distilled water + Tween-80 109 % of control

COc1cc(/C=C/Cc2cc3c(cc2O)OCO3)cc(OC)c1OC
inactive: [20] 95 % of control | [21] 90 % of control | [22] 89 % of control

COc1cc(C2N=C(N)N=C(N)N2c2ccc(S(N)(=O)=O)cc2)cc(OC)c1OC (stereo unspecified)
inactive: [6] 103 % of control | [7] 103 % of control

Cc1ccc(C(C(=O)O)(c2ccc(C)cc2)C(O)C(=O)O)cc1 (stereo unspecified)
inactive: dose: 100.0 mg/kg/injection, schedule: Q01DX001 (ip), vehicle: Klucel (hydroxypropylcellulose) (HPC) 107 % of control | dose: 200.0 mg/kg/injection, schedule: Q01DX001 (ip), vehicle: Klucel (hydroxypropylcellulose) (HPC) 107 % of control | dose: 400.0 mg/kg/injection, schedule: Q01DX001 (ip), vehicle: Klucel (hydroxypropylcellulose) (HPC) 105 % of control

CCN(CC)C(=O)C(F)C(F)(F)C(F)(F)C(F)(F)C(F)(F)C(F)(F)C(F)(F)F (stereo unspecified)
inactive: [15] 102 % of control | [16] 101 % of control | [17] 99 % of control

O=C(Nc1ccccc1)Nc1nnnc2ccccc12
inactive: dose: 100.0 mg/kg/injection, schedule: Q01DX001 (ip), vehicle: saline with Tween-80 100 % of control | dose: 200.0 mg/kg/injection, schedule: Q01DX001 (ip), vehicle: saline with Tween-80 95 % of control | dose: 400.0 mg/kg/injection, schedule: Q01DX001 (ip), vehicle: saline with Tween-80 90 % of control

N=C(N)SCc1cccc2c(=O)cc(-c3ccccc3)oc12
inactive: [9] 118 % of control | [10] 86 % of control and 93 % of control | [19] 113 % of control and 122 % of control
